Results taken from EP4725957A1, “GROUP OF CYCLIC ALKALINE LIPOPEPTIDE COMPOUNDS, AND PREPARATION METHOD THEREFOR AND USE THEREOF” (Institute of Medicinal Biotechnology, Chinese Academy of …, priority 2023, dated 2024).
Values after ≈ are worked out from the molar mass of the structure shown. Bridge positions count the residues as written; N and C are the ends. Square brackets hold non-standard residues; d marks the D form. Peptide text beside a SMILES is read from it. * marks the point of attachment. Heptanoyl(6-Me) = CC(C)CCCCC(=O)*; Nonanoyl = CCCCCCCCC(=O)*; X1 = CC[C@H](C)CCCCC(=O)*; dDab = NCC[C@@H](N)C(=O)O; Heptanoyl = CCCCCCC(=O)*; Octanoyl = CCCCCCCC(=O)*; Orn = NCCC[C@H](N)C(=O)O; Dab = NCC[C@H](N)C(=O)O; Dap = NC[C@H](N)C(=O)O

Columns and labels:
Format in all cases: cell-based
[1] = tested on: Acinetobacter baumannii ABA19-1; conditions: ABA19-1
Summary of the method: (§1)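 The MIC value comes from CLSI broth microdilution after 16-20 h at 35-37°C. Cyclic lipopeptides in Mueller-Hinton broth spanned 64 to 0.03 mg/L final, with each well carrying (2-4) × 10^5 CFU/mL.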

[2] = tested on: Acinetobacter baumannii NCTC 13304 (OXA-27); conditions: NCTC 13304
Summary of the method: as §1

[3] = tested on: Escherichia coli ATCC BAA-2340 (KPC); conditions: ATCC BAA-2340
Summary of the method: as §1

[4] = tested on: Escherichia coli ATCC BAA-2523; conditions: ATCC BAA-2523
Summary of the method: as §1

[5] = tested on: Klebsiella pneumoniae ATCC BAA-1705 (KPC); conditions: ATCC BAA-1705
Summary of the method: as §1

[6] = tested on: Klebsiella pneumoniae KPN+19-15; conditions: KPN+19-15
Summary of the method: as §1

[7] = tested on: Pseudomonas aeruginosa ATCC 27853; conditions: ATCC 27853
Summary of the method: as §1

[8] = tested on: Pseudomonas aeruginosa PAE19-3; conditions: PAE19-3
Summary of the method: as §1

[9] = Nephrotoxicity assay: in vitro cytotoxicity of HK-2 cells by CCK-8 assay; conditions: human, HK-2 cells (human renal), 72 h incubation with drug-containing medium
Summary of the method: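 Compounds in sterile water, diluted to final 500, 250, 200, 100, 50, 25 and 12.5 µg/mL, were applied for 72 h to human HK-2 kidney cells. Absorbance at 450 nm after 3 h CCK-8 gave viability against untreated wells, and IC50 came from logarithmic regression; three replicates.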

Compound | MIC [1] | MIC [2] | MIC [3] | MIC [4] | MIC [5] | MIC [6] | MIC [7] | MIC [8] | IC50 at 72 h [9]
CC[C@H](C)CCCCC(=O)N[C@@H](CCN)C(=O)N[C@H](C(=O)N[C@H](CO)C(=O)N[C@H]1CCNC(=O)[C@H]([C@@H](C)O)NC(=O)[C@H](CCCN)NC(=O)[C@H](CCN)NC(=O)[C@H]([C@@H](C)O)NC(=O)[C@@H](Cc2ccccc2)NC(=O)[C@H](CCN)NC1=O)[C@@H](C)O [Compound 86, (S)-6-methyloctanoyl-Dab-Thr-D-Ser-ring(4-10)[Dab-Dab-D-Phe-Thr-Dab-Orn-Thr]] (X1-[Dab]T[dS][Dab][Dab][dF]T[Dab][Orn]T; lactam 4-C) | 0.06 µg/mL (≈ 0.0503 µM) | ≤0.03 µg/mL | 0.03 µg/mL (≈ 0.0252 µM) | 0.03 µg/mL (≈ 0.0252 µM) | 0.25 µg/mL (≈ 0.21 µM) | 0.5 µg/mL (≈ 0.419 µM) | >64 µg/mL | 64 µg/mL (≈ 53.7 µM) | > 500 µg/mL
CC(C)CCCCC(=O)N[C@@H](CCN)C(=O)N[C@H](C(=O)N[C@H](CO)C(=O)N[C@H]1CCNC(=O)[C@H]([C@@H](C)O)NC(=O)[C@H](CCCN)NC(=O)[C@H](CCN)NC(=O)[C@H]([C@@H](C)O)NC(=O)[C@@H](Cc2ccccc2)NC(=O)[C@H](CCN)NC1=O)[C@@H](C)O [Compound 87, 6-methylheptanoyl-Dab-Thr-D-Ser-ring(4-10)[Dab-Dab-D-Phe-Thr-Dab-Orn-Thr]] ({Heptanoyl(6-Me)}-[Dab]T[dS][Dab][Dab][dF]T[Dab][Orn]T; lactam 4-C) | 0.06 µg/mL (≈ 0.0509 µM) | ≤0.03 µg/mL | 0.03 µg/mL (≈ 0.0255 µM) | 0.03 µg/mL (≈ 0.0255 µM) | 0.25 µg/mL (≈ 0.212 µM) | 0.5 µg/mL (≈ 0.424 µM) | >64 µg/mL | 64 µg/mL (≈ 54.3 µM) | > 500 µg/mL
CCCCCCCC(=O)N[C@@H](CCN)C(=O)N[C@H](C(=O)N[C@H](CO)C(=O)N[C@H]1CCNC(=O)[C@H]([C@@H](C)O)NC(=O)[C@H](CCCN)NC(=O)[C@H](CCN)NC(=O)[C@H]([C@@H](C)O)NC(=O)[C@@H](Cc2ccccc2)NC(=O)[C@H](CCN)NC1=O)[C@@H](C)O [Compound 88, Octanoyl-Dab-Thr-D-Ser-ring(4-10)[Dab-Dab-D-Phe-Thr-Dab-Orn-Thr]] (Octanoyl-[Dab]T[dS][Dab][Dab][dF]T[Dab][Orn]T; lactam 4-C) | 0.06 µg/mL (≈ 0.0509 µM) | ≤0.03 µg/mL | 0.03 µg/mL (≈ 0.0255 µM) | 0.03 µg/mL (≈ 0.0255 µM) | 0.25 µg/mL (≈ 0.212 µM) | 0.5 µg/mL (≈ 0.424 µM) | >64 µg/mL | 64 µg/mL (≈ 54.3 µM) | > 500 µg/mL
CCCCCCC(=O)N[C@@H](CCN)C(=O)N[C@H](C(=O)N[C@H](CO)C(=O)N[C@H]1CCNC(=O)[C@H]([C@@H](C)O)NC(=O)[C@H](CCCN)NC(=O)[C@H](CCN)NC(=O)[C@H]([C@@H](C)O)NC(=O)[C@@H](Cc2ccccc2)NC(=O)[C@H](CCN)NC1=O)[C@@H](C)O [Compound 89, Heptanoyl-Dab-Thr-D-Ser-ring(4-10)[Dab-Dab-D-Phe-Thr-Dab-Orn-Thr]] (Heptanoyl-[Dab]T[dS][Dab][Dab][dF]T[Dab][Orn]T; lactam 4-C) | 0.06 µg/mL (≈ 0.0515 µM) | 0.03 µg/mL (≈ 0.0258 µM) | 0.125 µg/mL (≈ 0.107 µM) | 0.125 µg/mL (≈ 0.107 µM) | 0.25 µg/mL (≈ 0.215 µM) | 0.5 µg/mL (≈ 0.429 µM) | >64 µg/mL | 64 µg/mL (≈ 55 µM) | > 500 µg/mL
CCCCCCCCC(=O)N[C@@H](CCN)C(=O)N[C@H](C(=O)N[C@H](CO)C(=O)N[C@H]1CCNC(=O)[C@H]([C@@H](C)O)NC(=O)[C@H](CCCN)NC(=O)[C@H](CCN)NC(=O)[C@H]([C@@H](C)O)NC(=O)[C@@H](Cc2ccccc2)NC(=O)[C@H](CCN)NC1=O)[C@@H](C)O [Compound 90, Nonanoyl-Dab-Thr-D-Ser-ring(4-10)[Dab-Dab-D-Phe-Thr-Dab-Orn-Thr]] (Nonanoyl-[Dab]T[dS][Dab][Dab][dF]T[Dab][Orn]T; lactam 4-C) | 0.06 µg/mL (≈ 0.0503 µM) | 0.03 µg/mL (≈ 0.0252 µM) | 0.25 µg/mL (≈ 0.21 µM) | 0.25 µg/mL (≈ 0.21 µM) | 0.25 µg/mL (≈ 0.21 µM) | 0.5 µg/mL (≈ 0.419 µM) | >64 µg/mL | 64 µg/mL (≈ 53.7 µM) | 320 ± 23.6 µg/mL (≈ 268 µM)
CC[C@H](C)CCCCC(=O)N[C@@H](CN)C(=O)N[C@H](C(=O)N[C@H](CCN)C(=O)N[C@H]1CCNC(=O)[C@H]([C@@H](C)O)NC(=O)[C@H](CCN)NC(=O)[C@H](CCN)NC(=O)[C@H](CC(C)C)NC(=O)[C@@H](Cc2ccccc2)NC(=O)[C@H](CCN)NC1=O)[C@@H](C)O [Compound 91, (S)-6-methyloctanoyl-Dap-Thr-D-Dab-ring(4-10)[Dab-Dab-D-Phe-Leu-Dab-Dab-Thr]] (X1-[Dap]T[dDab][Dab][Dab][dF]L[Dab][Dab]T; lactam 4-C) | 0.03 µg/mL (≈ 0.0252 µM) | 0.03 µg/mL (≈ 0.0252 µM) | 0.03 µg/mL (≈ 0.0252 µM) | 0.03 µg/mL (≈ 0.0252 µM) | 0.03 µg/mL (≈ 0.0252 µM) | 0.03 µg/mL (≈ 0.0252 µM) | 0.5 µg/mL (≈ 0.42 µM) | 0.5 µg/mL (≈ 0.42 µM) | 126 ± 19.2 µg/mL (≈ 106 µM)
CC(C)CCCCC(=O)N[C@@H](CN)C(=O)N[C@H](C(=O)N[C@H](CCN)C(=O)N[C@H]1CCNC(=O)[C@H]([C@@H](C)O)NC(=O)[C@H](CCN)NC(=O)[C@H](CCN)NC(=O)[C@H](CC(C)C)NC(=O)[C@@H](Cc2ccccc2)NC(=O)[C@H](CCN)NC1=O)[C@@H](C)O [Compound 92, 6-methylheptanoyl-Dap-Thr-D-Dab-ring(4-10)[Dab-Dab-D-Phe-Leu-Dab-Dab-Thr]] ({Heptanoyl(6-Me)}-[Dap]T[dDab][Dab][Dab][dF]L[Dab][Dab]T; lactam 4-C) | 0.03 µg/mL (≈ 0.0255 µM) | 0.03 µg/mL (≈ 0.0255 µM) | 0.03 µg/mL (≈ 0.0255 µM) | 0.03 µg/mL (≈ 0.0255 µM) | 0.03 µg/mL (≈ 0.0255 µM) | 0.03 µg/mL (≈ 0.0255 µM) | 0.5 µg/mL (≈ 0.425 µM) | 0.5 µg/mL (≈ 0.425 µM) | 228 ± 18.7 µg/mL (≈ 194 µM)
CCCCCCCC(=O)N[C@@H](CN)C(=O)N[C@H](C(=O)N[C@H](CCN)C(=O)N[C@H]1CCNC(=O)[C@H]([C@@H](C)O)NC(=O)[C@H](CCN)NC(=O)[C@H](CCN)NC(=O)[C@H](CC(C)C)NC(=O)[C@@H](Cc2ccccc2)NC(=O)[C@H](CCN)NC1=O)[C@@H](C)O [Compound 93, Octanoyl-Dap-Thr-D-Dab-ring(4-10)[Dab-Dab-D-Phe-Leu-Dab-Dab-Thr]] (Octanoyl-[Dap]T[dDab][Dab][Dab][dF]L[Dab][Dab]T; lactam 4-C) | 0.03 µg/mL (≈ 0.0255 µM) | 0.03 µg/mL (≈ 0.0255 µM) | 0.03 µg/mL (≈ 0.0255 µM) | 0.03 µg/mL (≈ 0.0255 µM) | 0.03 µg/mL (≈ 0.0255 µM) | 0.03 µg/mL (≈ 0.0255 µM) | 1 µg/mL (≈ 0.851 µM) | 1 µg/mL (≈ 0.851 µM) | 239 ± 19.1 µg/mL (≈ 204 µM)
CCCCCCC(=O)N[C@@H](CN)C(=O)N[C@H](C(=O)N[C@H](CCN)C(=O)N[C@H]1CCNC(=O)[C@H]([C@@H](C)O)NC(=O)[C@H](CCN)NC(=O)[C@H](CCN)NC(=O)[C@H](CC(C)C)NC(=O)[C@@H](Cc2ccccc2)NC(=O)[C@H](CCN)NC1=O)[C@@H](C)O [Compound 94, Heptanoyl-Dap-Thr-D-Dab-ring(4-10)[Dab-Dab-D-Phe-Leu-Dab-Dab-Thr]] (Heptanoyl-[Dap]T[dDab][Dab][Dab][dF]L[Dab][Dab]T; lactam 4-C) | 0.03 µg/mL (≈ 0.0258 µM) | 0.03 µg/mL (≈ 0.0258 µM) | 0.06 µg/mL (≈ 0.0517 µM) | 0.06 µg/mL (≈ 0.0517 µM) | 0.03 µg/mL (≈ 0.0258 µM) | 0.03 µg/mL (≈ 0.0258 µM) | 1 µg/mL (≈ 0.861 µM) | 1 µg/mL (≈ 0.861 µM) | 298 ± 30.7 µg/mL (≈ 257 µM)
CCCCCCCCC(=O)N[C@@H](CN)C(=O)N[C@H](C(=O)N[C@H](CCN)C(=O)N[C@H]1CCNC(=O)[C@H]([C@@H](C)O)NC(=O)[C@H](CCN)NC(=O)[C@H](CCN)NC(=O)[C@H](CC(C)C)NC(=O)[C@@H](Cc2ccccc2)NC(=O)[C@H](CCN)NC1=O)[C@@H](C)O [Compound 95, Nonanoyl-Dap-Thr-D-Dab-ring(4-10)[Dab-Dab-D-Phe-Leu-Dab-Dab-Thr]] (Nonanoyl-[Dap]T[dDab][Dab][Dab][dF]L[Dab][Dab]T; lactam 4-C) | 0.06 µg/mL (≈ 0.0504 µM) | 0.06 µg/mL (≈ 0.0504 µM) | 0.125 µg/mL (≈ 0.105 µM) | 0.125 µg/mL (≈ 0.105 µM) | 0.06 µg/mL (≈ 0.0504 µM) | 0.06 µg/mL (≈ 0.0504 µM) | 1 µg/mL (≈ 0.841 µM) | 1 µg/mL (≈ 0.841 µM) | 113 ± 10.3 µg/mL (≈ 94.8 µM)
CC[C@H](C)CCCCC(=O)N[C@@H](CN)C(=O)N[C@H](C(=O)N[C@H](CCN)C(=O)N[C@H]1CCNC(=O)[C@H]([C@@H](C)O)NC(=O)[C@H](CCN)NC(=O)[C@H](CCN)NC(=O)[C@H](CC(C)C)NC(=O)[C@@H](CC(C)C)NC(=O)[C@H](CCN)NC1=O)[C@@H](C)O [Compound 96, (S)-6-methyloctanoyl-Dap-Thr-D-Dab-ring(4-10)[Dab-Dab-D-Leu-Leu-Dab-Dab-Thr]] (X1-[Dap]T[dDab][Dab][Dab][dL]L[Dab][Dab]T; lactam 4-C) | 0.03 µg/mL (≈ 0.026 µM) | 0.03 µg/mL (≈ 0.026 µM) | 0.03 µg/mL (≈ 0.026 µM) | 0.03 µg/mL (≈ 0.026 µM) | 0.03 µg/mL (≈ 0.026 µM) | 0.03 µg/mL (≈ 0.026 µM) | 0.5 µg/mL (≈ 0.433 µM) | 0.5 µg/mL (≈ 0.433 µM) | 207 ± 13.2 µg/mL (≈ 179 µM)
